Measured values taken from patent publication US9862730B2, “Imidazothiadiazole derivatives as protease activated receptor 4 (PAR4) inhibitors for treating platelet aggregation” (BRISTOL-MYERS SQUIBB COMPANY, priority 2012, dated 2018).

Tests used:
[1] = test system: platelet aggregation in human PRP; experiment: Tissue factor-induced platelet aggregation assay; format: cell-based; conditions: tissue factor and CaCl2
Text: Example E is a tissue factor-induced platelet aggregation assay. The conditions in this assay mimic the physiological events during thrombus formation. In this assay, platelet aggregation in human PRP was initiated by the addition of tissue factor and CaCl2. Tissue factor, the initiator of the extrinsic coagulation cascade, is highly elevated in human atherosclerotic plaque. Exposure of blood to tissue factor at the atherosclerotic site triggers a robust generation of thrombin and induces the formation of obstructive thrombi.
The platelet rich plasma was isolated by centrifugation at 170 g for 14 minutes.
The ability of PAR1 or PAR4 antagonist to inhibit platelet aggregation induced by endogenous thrombin was tested in a tissue factor driven aggregation assay. The compounds were pre-incubated with PRP for 2 min (FIGS. 3 and 4). Aggregation is initiated by addition of CaCl2 and recombinant human tissue factor, which results in the generation of thrombin through activation of the coagulation pathway in the plasma. Anticoagulant agents such as corn trypsin inhibitor (Haematologic Technologies, Essex Junction, Vt.) at 50 μg/ml and PEFABLOC® FG (Centerchem, Norwalk, Conn.) are also added to the sample to prevent fibrin clot formation during the time of the study. Platelet aggregation is monitored using standard instrumentation including optical aggregometer or impedance aggregometer.

PAR4 = PAR4 (Homo sapiens (Human), UniProt Q96RI0); experiment: FLIPR assay in PAR4-expressing HEK293 cells (PAR4 antagonist activity, calcium mobilization); format: cell-based; conditions: FLIPR assay as described in Example A
PAR4, sequence (Q96RI0 18-385): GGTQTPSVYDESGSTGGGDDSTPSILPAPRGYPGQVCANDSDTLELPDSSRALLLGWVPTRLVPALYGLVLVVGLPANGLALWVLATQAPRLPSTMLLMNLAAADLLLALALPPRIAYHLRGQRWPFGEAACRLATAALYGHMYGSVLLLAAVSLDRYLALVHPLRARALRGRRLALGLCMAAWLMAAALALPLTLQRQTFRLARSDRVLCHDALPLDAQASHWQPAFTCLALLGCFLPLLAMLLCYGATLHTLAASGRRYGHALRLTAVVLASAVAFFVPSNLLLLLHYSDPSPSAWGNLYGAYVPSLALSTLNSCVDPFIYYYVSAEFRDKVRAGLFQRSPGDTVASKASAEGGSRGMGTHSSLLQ
How it was run: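 Calcium-flux antagonist readout: compounds preincubated 30 min at room temperature with PAR4-transfected HEK293 cells in HBSS with 10 mM HEPES (0.67% DMSO final), then agonist peptide added. Agonist activity checked on compound addition; cells carry endogenous PAR1.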

[2] = test system: electrolytic injury-induced carotid artery thrombosis; experiment: Cynomolgus monkey electrolytic injury-induced carotid artery thrombosis model; format: in vivo; conditions: oral, dose response
Text: The efficacy of the PAR4 antagonists of the present invention in preventing thrombosis can also be measured in a variety of in vivo assays. Exemplary mammals that can provide models of thrombosis and hemostasis to test the effectiveness of the PAR4 antagonists of the present invention as antithrombotic agents include, but are not limited to, guinea pigs and primates. Relevant efficacy models include, but are not limited to, electrolytic injury-induced carotid artery thrombosis, FeCl3-induced carotid artery thrombosis and arteriovenous-shunt thrombosis. […]
On the day of the study, compounds or vehicles were administered orally at 1 to 2 hours before the experiment. […] Blood pressure and heart rate were monitored to maintain normal vital signs.
Carotid blood flow was measured with an appropriately sized TRANSONIC® flow probe and a TRANSONIC® perivascular flowmeter (TS420 Model, Transonic Systems Inc., Ithaca, N.Y.). It was continuously recorded over a 90-min period to monitor thrombosis-induced occlusion. Integrated carotid blood flow was measured by the area under the flow-time curve. It was expressed as percent of total control carotid blood flow, which would result if control blood flow had been maintained continuously for 90 min. […]

[3] = ACS patients, phase III; cited from earlier work

## COc1cc(OC)c2cc(-c3cn4nc(OC)sc4n3)oc2c1 [Example 73]
[1]
  inhibition of tissue factor-induced platelet aggregation (FIGS. 3 and 4): effective inhibition
PAR4
  IC50: 0.99 nM

## COc1cc(OCc2cccc(OCc3ccccc3)c2)c2cc(-c3cn4nc(OC)sc4n3)oc2c1 [Example 205, 6-(4-((3-(Benzyloxy)benzyl)oxy)-6-methoxybenzofuran-2-yl)-2-methoxyimidazo[2,1-b][1,3,4]thiadiazole]
[2]
  antithrombotic efficacy / inhibition of thrombus formation (FIG. 5): demonstrating the in vivo antithrombotic efficacy

## CCOC(=O)N[C@@H]1CC[C@@H]2[C@@H](C1)C[C@H]1C(=O)O[C@H](C)[C@H]1[C@H]2/C=C/c1ccc(-c2cccc(F)c2)cn1 [vorapaxar]
[3]
  cardiovascular events: did not significantly reduce cardiovascular events
  risk of major bleeding: significantly increased the risk of major bleeding
